In data set [1] the target is hCA IX. Set-up: method as in PMID 26160114. The note with it: Figure 2; cited from earlier work.
Data set [2] deals with hCA XII. The arrangement: method as in PMID 26160114. The conditions noted are these: Figure 2; cited from earlier work.
Data set [3] deals with hCA II (Homo sapiens, UniProt P00918). The experiment in a line: stopped-flow CA catalysed CO2 hydration assay, hCA II.
Protocol: (§1) An applied photophysics stopped-flow instrument has been used for assaying the CA catalysed CO2 hydration activity[21]. […] The CO2 concentrations ranged from 1.7 to 17 mM for the determination of the kinetic parameters and inhibition constants. […] The uncatalysed rates were determined in the same manner and subtracted from the total observed rates. Stock solutions of inhibitor (0.1 mM) were prepared in distilled-deionized water and dilutions up to 0.005 nM were done thereafter with the assay buffer. Inhibitor and enzyme solutions were preincubated together for 15 min at room temperature prior to assay, in order to allow for the formation of the E–I complex. The inhibition constants were obtained by non-linear least-squares methods using PRISM 3 and the Cheng–Prusoff equation, as reported earlier, and represent the mean from at least three different determinations. All CA isoforms were recombinant ones obtained in-house[22–25].
Data set [4] deals with hCA IV (Homo sapiens, UniProt P22748). The experiment in a line: stopped-flow CA catalysed CO2 hydration assay, hCA IV.
Protocol: as §1
Data set [5] concerns the target hCA I (Homo sapiens, UniProt P00915). The experiment in a line: stopped-flow CA catalysed CO2 hydration assay, hCA I.
Protocol: as §1
The target in data set [6] is hCA VII (Homo sapiens, UniProt P43166). As to the kind of experiment: stopped-flow CA catalysed CO2 hydration assay, hCA VII.
Protocol: as §1
Setting [7] is: within the panel hCA I, II, IV, VII.

Sequence of hCA VII (P43166 whole entry): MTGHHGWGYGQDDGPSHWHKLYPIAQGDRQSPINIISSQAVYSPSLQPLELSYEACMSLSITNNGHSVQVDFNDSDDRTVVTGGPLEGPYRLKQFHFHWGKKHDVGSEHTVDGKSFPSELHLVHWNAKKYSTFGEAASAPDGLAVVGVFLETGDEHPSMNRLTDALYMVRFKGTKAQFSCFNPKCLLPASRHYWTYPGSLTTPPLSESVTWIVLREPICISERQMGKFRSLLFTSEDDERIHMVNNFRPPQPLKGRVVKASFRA
Sequence of hCA IV (P22748 19-312): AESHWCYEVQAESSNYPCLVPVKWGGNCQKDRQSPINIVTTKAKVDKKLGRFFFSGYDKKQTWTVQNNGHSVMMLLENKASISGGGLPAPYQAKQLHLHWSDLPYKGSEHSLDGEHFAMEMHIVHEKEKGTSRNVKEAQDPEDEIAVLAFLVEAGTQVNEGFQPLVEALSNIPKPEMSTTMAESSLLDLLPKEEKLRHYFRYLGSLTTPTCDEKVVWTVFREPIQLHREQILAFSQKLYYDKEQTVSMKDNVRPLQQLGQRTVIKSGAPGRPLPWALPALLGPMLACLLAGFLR
Sequence of hCA I (P00915 whole entry): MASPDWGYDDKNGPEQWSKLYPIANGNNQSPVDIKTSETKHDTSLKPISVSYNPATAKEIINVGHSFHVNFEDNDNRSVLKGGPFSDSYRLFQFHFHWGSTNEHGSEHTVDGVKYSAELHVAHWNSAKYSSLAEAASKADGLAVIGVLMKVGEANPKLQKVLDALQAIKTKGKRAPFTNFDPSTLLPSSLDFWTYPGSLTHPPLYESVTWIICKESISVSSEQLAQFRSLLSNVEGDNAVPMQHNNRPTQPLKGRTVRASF

On to `NS(=O)(=O)c1ccc(-c2cnc(C(=O)N3CCCC3)o2)s1` [Compound 4], for which the Ki (usually the dissociation constant of the complex between target and ligand, obtained from inhibition or displacement) in data set [1] was 18.7 nM; in data set [2], 6.7 nM.
For the compound `Cc1ccc(-n2cccn2)cc1S(N)(=O)=O` [Compound 7b, 2-Methyl-5-(^1H-pyrazol-1-yl)benzenesulfonamide], the melting point – broadly, the temperature, or range, at which the solid turns liquid – is 147 to 149 °C. The compound further yielded an inhibition constant (Ki) in data set [3] above 10000 nM. In addition, in data set [4], the Ki was 560 nM and the “hCA IV inhibition, in words” value is on record as “potent inhibition of hCA IV”. Also, the “isoform selectivity for hCA IV, in words” value in data set [4] (setting [7]) is listed as “high selectivity”. Besides, the inhibition constant Ki in data set [5] was above 10000 nM. The compound further returned an inhibition constant Ki in data set [6] above 10000 nM.
`COc1ccc(S(N)(=O)=O)cc1-n1nc(C)c(S(N)(=O)=O)c1C` [Compound 9l, 1-(2-Methoxy-5-sulfamoylphenyl)-3,5-dimethyl-^1H-pyrazole-4-sulfonamide] showed a melting point of 238 to 242 °C. Moreover, the affinity in data set [3] corresponds to a Ki of 300 nM. This compound also came in with an inhibitory constant (Ki) in data set [4] of 950 nM. The affinity in data set [5], expressed as Ki, was 6800 nM. The Ki in data set [6] is above 10000 nM.
Compound `COc1cc(-n2nc(C)cc2C)ccc1S(N)(=O)=O` [Compound 7i, 4-(3,5-Dimethyl-^1H-pyrazol-1-yl)-2-methoxybenzenesulfonamide] came in with a melting point of 156 to 158 °C. This compound yielded an inhibition constant (Ki) in data set [3] above 10000 nM. Further, the Ki in data set [4] was above 10000 nM. The compound further yielded a Ki in data set [5] of 8850 nM. This compound also yielded a Ki in data set [6] above 10000 nM.
`NS(=O)(=O)c1cnn(-c2ccc(Cl)c(S(N)(=O)=O)c2)c1` [Compound 9n, 1-(4-Chloro-3-sulfamoylphenyl)-^1H-pyrazole-4-sulfonamide] showed a melting point of 232 to 235 °C. This compound also gave a Ki in data set [3] of 24 nM. The compound also came in with an inhibition constant (Ki) in data set [4] of 74 nM. This compound returned a Ki in data set [5] of 620 nM. For the same compound, the inhibition constant (Ki) in data set [6] is 99 nM.
The corresponding values for `COc1ccc(-n2nc(C)cc2C)cc1S(N)(=O)=O` [Compound 7g, 5-(3,5-Dimethyl-^1H-pyrazol-1-yl)-2-methoxybenzenesulfonamide] are 195 to 197 °C, above 10000 nM, above 10000 nM, above 10000 nM and above 10000 nM.
As for `NS(=O)(=O)c1ccc(-n2cccn2)cc1Cl` [Compound 7m, 2-Chloro-4-(^1H-pyrazol-1-yl)benzenesulfonamide], the melting point fell in the range of 181 to 183 °C. Further, the affinity in data set [3], expressed as Ki, was 85 nM. This compound gave a Ki in data set [4] of 86 nM. The Ki in data set [5] stood at 66 nM. For the same compound, in data set [6], affinity was put at a Ki of 328 nM.
Taken in the same sequence, the figures for `NS(=O)(=O)c1cnn(-c2ccc(Cl)cc2)c1` [Compound 8f, 1-(4-Chlorophenyl)-^1H-pyrazole-4-sulfonamide] were 147 to 150 °C, 82 nM, 7060 nM, 190 nM and above 10000 nM.
For the compound `Cc1ccc(-n2nc(C)c(S(N)(=O)=O)c2C)cc1` [Compound 8c, 3,5-Dimethyl-1-(4-methylphenyl)-^1H-pyrazole-4-sulfonamide], the melting point was 171 to 174 °C. The same compound returned an inhibitory constant (Ki) in data set [3] of 740 nM. Also, in data set [4], the Ki is above 10000 nM. In data set [5], this compound gave a Ki of 760 nM. The same compound had an inhibition constant Ki in data set [6] above 10000 nM.
The compound `Cc1nn(-c2cc(S(N)(=O)=O)ccc2Cl)c(C)c1S(N)(=O)=O` [Compound 9q, 1-(2-Chloro-5-sulfamoylphenyl)-3,5-dimethyl-^1H-pyrazole-4-sulfonamide] had a melting point of 230 to 232 °C. The same compound displayed a Ki in data set [3] of 25 nM. In data set [3] (setting [7]), the “isoform selectivity for hCA II, in words” value was “selective hCA II inhibitor”. For the same compound, in data set [4], the Ki was 4380 nM. Besides, the Ki in data set [5] was 2120 nM. The compound further came in with an inhibitory constant (Ki) in data set [6] above 10000 nM.
Take `Cc1ccc(-n2cc(S(N)(=O)=O)cn2)cc1S(N)(=O)=O` [Compound 9e, 1-(4-Methyl-3-sulfamoylphenyl)-^1H-pyrazole-4-sulfonamide]: the melting point was in the range of 217 to 220 °C. Besides, the affinity in data set [3], expressed as Ki, was 4 nM. Moreover, the affinity in data set [4], expressed as Ki, was 240 nM. For the same compound, the affinity in data set [5], expressed as Ki, was 300 nM. Also, in data set [6], the affinity corresponds to a Ki of 68 nM.
As to `Cc1ccc(S(N)(=O)=O)cc1-n1nc(C)c(S(N)(=O)=O)c1C` [Compound 9h, 3,5-Dimethyl-1-(2-methyl-5-sulfamoylphenyl)-^1H-pyrazole-4-sulfonamide], the melting point was 308 to 310 °C. The inhibition constant Ki in data set [3] was above 10000 nM. This compound came in with a Ki in data set [4] above 10000 nM. Further, the inhibition constant (Ki) in data set [5] amounted to 870 nM. In data set [5] (setting [7]), the “isoform selectivity for hCA I, in words” value is “selective inhibitor of hCA I”. Also, the Ki in data set [6] is above 10000 nM.
In turn, `COc1ccc(S(N)(=O)=O)cc1-n1cccn1` [Compound 7l, 4-Methoxy-3-(^1H-pyrazol-1-yl)benzenesulfonamide] showed a melting point of 255 to 257 °C. The compound also displayed an inhibition constant Ki in data set [3] of 6650 nM. In addition, the Ki in data set [4] is above 10000 nM. The compound further returned a Ki in data set [5] above 10000 nM. In data set [6], this compound registered an inhibitory constant (Ki) above 10000 nM.
As for `NS(=O)(=O)c1ccc(Cl)c(-n2cc(S(N)(=O)=O)cn2)c1` [Compound 9r, 1-(2-Chloro-5-sulfamoylphenyl)-^1H-pyrazole-4-sulfonamide], the melting point was 235 to 237 °C. Further, the Ki in data set [3] came out at 5 nM. Affinity in data set [4] was put at a Ki of 22 nM. For the same compound, the affinity in data set [5], expressed as Ki, was 550 nM. Moreover, the Ki in data set [6] worked out at 600 nM.
For the compound `Cc1cc(-n2cccn2)ccc1S(N)(=O)=O` [Compound 7d, 2-Methyl-4-(^1H-pyrazol-1-yl)benzenesulfonamide], the melting point is 161 to 163 °C. Moreover, the affinity in data set [3] corresponds to a Ki of 8 nM. In data set [4], affinity was put at a Ki of 3420 nM. This compound displayed an inhibitory constant (Ki) in data set [5] of 96 nM. For the same compound, the affinity in data set [6] corresponds to a Ki of 14 nM.
`COc1ccc(S(N)(=O)=O)cc1-n1nc(C)cc1C` [Compound 7k, 3-(3,5-Dimethyl-^1H-pyrazol-1-yl)-4-methoxybenzenesulfonamide] showed a melting point of 167 to 170 °C. Moreover, in data set [3], the Ki is above 10000 nM and the “hCA II inhibition, in words” value is “inactive throughout the panel”. Also, in data set [4], the Ki is above 10000 nM and the “hCA IV inhibition, in words” value is “inactive throughout the panel”. In data set [5], the Ki was above 10000 nM and the “hCA I inhibition, in words” value is “inactive throughout the panel”. In data set [6], the Ki is above 10000 nM and the “hCA VII inhibition, in words” value is “inactive throughout the panel”.
As for `NS(=O)(=O)c1ccc(-n2cc(S(N)(=O)=O)cn2)cc1` [Compound 9c, 1-(4-Sulfamoylphenyl)-^1H-pyrazole-4-sulfonamide], the melting point lay within 254 to 257 °C. The Ki in data set [3] was 2 nM. The compound further returned an inhibition constant Ki in data set [4] of 25 nM. In data set [5], this compound came in with a Ki of 200 nM. In addition, in data set [6], the affinity corresponds to a Ki of 41 nM.
As for `Cc1nn(-c2cccc(S(N)(=O)=O)c2)c(C)c1S(N)(=O)=O` [Compound 9a, 3,5-Dimethyl-1-(3-sulfamoylphenyl)-^1H-pyrazole-4-sulfonamide], the melting point lay in the range of 223 to 225 °C. In addition, the affinity in data set [3], expressed as Ki, was 21 nM. In data set [4], this compound yielded an inhibition constant Ki of 65 nM. In data set [5], this compound registered a Ki of 500 nM. In data set [6], this compound came in with an inhibition constant Ki of 260 nM.
